Reference: US10676446B2, “Bicyclic quinazolinone derivatives” (Hoffmann-La Roche Inc., priority 2015, dated 2020)

Target: human ATX (autotaxin, ENPP2), His-tagged (Homo sapiens (Human), UniProt Q13822)
Assay: Human ATX enzyme inhibition assay (fluorescence quenching, MR121 substrate)
Type: biochemical
Details: 30 nM ATX, 1 μM MR121 substrate, 30° C., pH 8.0
Procedure, shortened: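 His-tagged human ATX (30 nM final) preincubated 15 min at 30 °C with serially diluted compound in Tris-HCl pH 8.0 buffer with Ca2+, Mg2+ and 0.01% Triton X-100. MR121-labelled fluorescence-quenched substrate then added (1 μM final) for a further 15 min at 30 °C; fluorescence read-out.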

`CC(=O)N1CCC(O)(c2ccc3ncn(CC(=O)N(C)Cc4ccc(Cl)c(Cl)c4)c(=O)c3c2)CC1` [Example 184, 2-[6-(1-Acetyl-4-hydroxypiperidin-4-yl)-4-oxoquinazolin-3-yl]-N-[(3,4-dichlorophenyl)methyl]-N-methylacetamide] and `CC(=O)N1CCC(O)(c2ccc3ncn(CC(=O)N(C)Cc4ccc(C#N)c(Cl)c4)c(=O)c3c2)CC1` [Example 185, 2-[6-(1-Acetyl-4-hydroxypiperidin-4-yl)-4-oxoquinazolin-3-yl]-N-[(3-chloro-4-cyanophenyl)methyl]-N-methylacetamide] are within 1.5-fold of each other in IC50: 86 nM for the first, 125 nM for the second.

First: CN(Cc1ccc(C#N)c(Cl)c1)C(=O)Cn1cnc2ccc(C3CCN(C(=O)CO[N+](=O)[O-])CC3)cc2c1=O [Example 186, [2-[4-[3-[2-[(3-Chloro-4-cyanophenyl)methyl-methylamino]-2-oxoethyl]-4-oxoquinazolin-6-yl]piperidin-1-yl]-2-oxoethyl]nitrate]
Second: COCCC(=O)N1CCC(c2cc3c(=O)n(CC(=O)N(C)Cc4ccc(C#N)c(Cl)c4)cnc3cn2)CC1 [Example 190, N-[(3-Chloro-4-cyanophenyl)methyl]-2-[6-[1-(3-methoxypropanoyl)piperidin-4-yl]-4-oxopyrido[3,4-d]pyrimidin-3-yl]-N-methylacetamide]
The IC50 of the first is 4-fold higher: 4 nM for the first, 1 nM for the second.

`CC(=O)N1CCC(c2cc(F)c3ncn(CC(=O)N(C)Cc4ccc(C#N)c(Cl)c4)c(=O)c3c2)CC1` [Example 187, 2-[6-(1-Acetylpiperidin-4-yl)-8-fluoro-4-oxoquinazolin-3-yl]-N-[(3-chloro-4-cyanophenyl)methyl]-N-methylacetamide] and `COCCC(=O)N1CCC(c2cc(F)c3ncn(CC(=O)N(C)Cc4ccc(C#N)c(Cl)c4)c(=O)c3c2)CC1` [Example 188, N-[(3-Chloro-4-cyanophenyl)methyl]-2-[8-fluoro-6-[1-(3-methoxypropanoyl)piperidin-4-yl]-4-oxoquinazolin-3-yl]-N-methylacetamide] are the same in IC50: 1 nM for the first, 1 nM for the second.

For `CC(=O)N1CCC(c2cc3c(=O)n(CC(=O)N(C)Cc4ccc(C#N)c(Cl)c4)cnc3cn2)CC1` [Example 189, 2-[6-(1-Acetylpiperidin-4-yl)-4-oxopyrido[3,4-d]pyrimidin-3-yl]-N-[(3-chloro-4-cyanophenyl)methyl]-N-methylacetamide], the IC50 was 1 nM.
